Results from patent publication US20230330080A1, “THERAPEUTIC TREATMENT USING PROTEIN KINASE C (PKC) INHIBITORS AND CYTOTOXIC AGENTS” (Cambridge Enterprise Limited, priority 2020, published 2023).

Key:
Type in all cases: cell-based, human
[1] = system: CLL patient cells co-cultured with wild-type bone marrow derived stroma cells; experiment: 1-hour PKC inhibitor pre-treatment with washout before cytotoxic agent; viability of CLL/stroma co-cultures by Annexin-V-FITC and DAPI flow cytometry
Method: (§1) Approximately 20,000 wild-type bone marrow derived stroma cells were seeded into tissue culture wells and subsequently co-cultured with approximately 200,000 CLL patient cells. 24 hours thereafter, co-cultures were treated with 5 μM Enzastaurin for 1 hour at the indicated time-points prior to treatment with Fludarabine or Venetoclax (FIGS. 1A and 2A). Equivalent PKC-β-inhibitor exposure was maintained through removal and subsequent washout of Enzastaurin-treated co-cultures. Co-cultures were centrifuged at 500 g for 5 minutes, prior to removal of Enzastaurin containing media. Washout with cell culture media, was followed by an additional centrifugation at 500 g for 5 minutes, and the replacement of washout media with fresh media. Respective co-cultures were subsequently treated with either Fludarabine (2.5 μM) or Venetoclax (2.5 nM) for 24 hours. Cells were subsequently evaluated for viability using Annexin-V-FITC and DAPI, or 4′,6-diamidino-2-phenylindole, staining on a flow cytometer (FIGS. 1B and 2B).
as §1, with “Bendamustine (FIG. 7).” for “Fludarabine or Venetoclax (FIGS. 1A and 2A).”, “Bendamustine (15” for “either Fludarabine (2.5”, “μM)” for “μM) or Venetoclax (2.5 nM)”, “cytometer.” for “cytometer (FIGS. 1B and 2B).”
Approximately 20,000 wild-type bone marrow derived stroma cells were seeded into tissue culture wells and subsequently co-cultured with approximately 200,000 CLL patient cells. 24 hours thereafter, co-cultures were treated with 5 μM Ruboxistaurin for 1 hour at the indicated time-points prior to treatment with Venetoclax (FIG. 10A). Equivalent PKC-β-inhibitor exposure was maintained through removal and subsequent washout of Ruboxistaurin-treated co-cultures. Co-cultures were centrifuged at 500 g for 5 minutes, prior to removal of Ruboxistaurin containing media. Washout with cell culture media, was followed by an additional centrifugation at 500 g for 5 minutes, and the replacement of washout media with fresh media. Respective co-cultures were subsequently treated with Venetoclax (5 nM) for 24 hours. Cells were subsequently evaluated for viability using Annexin-V-FITC and DAPI, or 4′,6-diamidino-2-phenylindole, staining on a flow cytometer (FIG. 10B).

[2] = system: CLL patient cells co-cultured with wild-type bone marrow derived stroma cells; experiment: Continuous PKC inhibitor exposure begun before cytotoxic agent; viability of CLL/stroma co-cultures by Annexin-V-FITC and DAPI flow cytometry
Method: (§2) Approximately 20,000 wild-type bone marrow derived stroma cells were seeded into tissue culture wells and subsequently co-cultured with approximately 200,000 CLL patient cells. 24 hours thereafter, co-cultures were treated with 5 μM Enzastaurin at the indicated time-points prior to treatment with Venetoclax (FIG. 3A). Co-cultures were subsequently treated with Venetoclax (2.5 nM) for 24 hours. Cells were subsequently evaluated for viability using Annexin-V-FITC and DAPI staining on a flow cytometer (FIG. 3B).
as §2, with “Bendamustine” for “Venetoclax”, “8).” for “3A).”, “Bendamustine (15 μM)” for “Venetoclax (2.5 nM)”, “8).” for “3B).”
as §2, with “1” for “5”, “Midostaurin” for “Enzastaurin”, “Bendamustine” for “Venetoclax”, “8).” for “3A).”, “Bendamustine (15 μM)” for “Venetoclax (2.5 nM)”, “9).” for “3B).”

[3] = system: CLL patient cells co-cultured with wild-type bone marrow derived stroma cells; experiment: Synergism of PKC-β inhibitors with Venetoclax in CLL/stroma co-culture (Compusyn, Bliss Independence model); details: PKC inhibitor 1.25, 2.5, 5 μM prior to Venetoclax 5, 10, 20 nM for 24 hours
Method: Heatmaps reflect assessment values noted for respective compound combinations, with error (*) indicated below. A scale of 50 to −50, is applied to values, with 50 representing maximal synergism and −50 being maximal antagonism. Non-significant values are by default coloured as neither synergistic nor antagonistic;
Approximately 20,000 wild-type bone marrow derived stroma cells were seeded into tissue culture wells and subsequently co-cultured with approximately 200,000 CLL patient cells. 24 hours thereafter, co-cultures were treated with Enzastaurin, Sotrastaurin or Midostaurin (1.25 μM, 2.5 μM, 5 μM) prior to treatment with Venetoclax. Co-cultures were subsequently treated with Venetoclax (5 nM, 10 nM, 20 nM) for 24 hours. Cells were subsequently evaluated for viability using flow cytometric analysis. Synergism was calculated using Compusyn Software (CRUK), within the Bliss Independence model (FIG. 5).

[4] = 5 μM Enzastaurin for 1 hour, then Bendamustine 15 μM for 24 hours
[5] = 5 μM Enzastaurin for 1 hour, then Fludarabine 2.5 μM for 24 hours
[6] = 5 μM Enzastaurin for 1 hour, then Venetoclax 2.5 nM for 24 hours
[7] = 5 μM Ruboxistaurin for 1 hour, then Venetoclax 5 nM for 24 hours

SMILES: Cn1cc(C2=C(c3cn(C4CCN(Cc5ccccn5)CC4)c4ccccc34)C(=O)NC2=O)c2ccccc21 [Enzastaurin, 3-(1-methylindol-3-yl)-4-[1-[1-(pyridin-2-ylmethyl)piperidin-4-yl]indol-3-yl]pyrrole-2,5-dione]
- pre-dosing timepoints showing increased efficacy of Bendamustine [1, 4]: 2 to 6 h
- pre-dosing timepoints with largest effect on efficacy of Bendamustine [1, 4]: 3 to 6 h
- pre-dosing time points showing increased efficacy of Fludarabine [1, 5]: 2 to 6 h
- pre-dosing time points with largest effect on efficacy of Fludarabine [1, 5]: 3 to 6 h
- pre-dosing time points showing increased efficacy of Venetoclax [1, 6]: 2 to 6 h
- pre-dosing time points with largest effect on efficacy of Venetoclax [1, 6]: 3 to 6 h
- pre-dosing time giving greatest efficacy of Bendamustine ([2]; continuous 5 μM Enzastaurin beginning 1, 2, 3, 4, 6, 8 hours prior to Bendamustine 15 μM for 24 hours): 3 to 6 h
- pre-dosing time giving greatest efficacy of Venetoclax ([2]; continuous 5 μM Enzastaurin beginning 1, 2, 3, 4, 6, 12 hours prior to Venetoclax 2.5 nM for 24 hours): 3 to 6 h
- combinatorial treatment effect with Venetoclax (synergism, Bliss model) [3]: synergistic effects

SMILES: CO[C@@H]1[C@H](N(C)C(=O)c2ccccc2)C[C@H]2O[C@]1(C)n1c3ccccc3c3c4c(c5c6ccccc6n2c5c31)C(=O)NC4 [Midostaurin, N-((5R,7R,8R,9S)-8-methoxy-9-methyl-16-oxo-6,7,8,9,15,16-hexahydro-5H,14H-17-oxa-4b,9a,15-triaza-5,9-methanodibenzo[b,h]cyclonona[jkl]cyclopenta[e]-as-indacen-7-yl)-N-methylbenzamide]
- pre-dosing time giving greatest efficacy of Bendamustine ([2]; continuous 1 μM Midostaurin beginning 1, 2, 3, 4, 6, 8 hours prior to Bendamustine 15 μM for 24 hours): 3 to 8 h

SMILES: CN(C)C[C@@H]1CCn2cc(c3ccccc32)C2=C(C(=O)NC2=O)c2cn(c3ccccc23)CCO1 [Ruboxistaurin]
- pre-dosing time points showing increased efficacy of Venetoclax [1, 7]: 1 to 6 h
- pre-dosing time points with most significant effects on efficacy of Venetoclax [1, 7]: 1 to 4 h

SMILES: CN1CCN(c2nc(C3=C(c4c[nH]c5ccccc45)C(O)=NC3=O)c3ccccc3n2)CC1 [Sotrastaurin, 5-hydroxy-4-(1H-indol-3-yl)-3-[2-(4-methylpiperazin-1-yl)quinazolin-4-yl]-2H-pyrrol-2-one]
- combinatorial treatment effect with Venetoclax (synergism, Bliss model) [3]: synergistic effects
